Experiments:
[1] = DLS size of dendrimersomes assembled from glycerol-JDs in water at different concentrations; format: physicochemical; settings: for Dh (nm): size distribution by intensity
Experimental: Assembly of all eight glycerol-JDs was performed by injection of their ethanol solution (50 μL) into 1 mL of Milli-Q water. The size distribution and structure of resulting DSs were analyzed by DLS (FIG. 84) and cryo-TEM. […] In a certain concentration range the size of DSs increased with the concentration of JDs injected in water or buffer. […] The dimensions of the assemblies were identical when the concentrations of the JDs in water were identical. Sizes of assemblies from mixtures of 1R and 1S in different ratios (1:3, 1:1 and 3:1), were also identical (FIG. 84). […] With the exception of the rotation of polarized light, the physical properties of enantiomers and their racemic mixtures must be identical.
Dynamic light scattering (DLS). Hydrodynamic diameters (Dh) of the self-assemblies of dendrimer molecules and their size distributions were measured on a Malvern Instruments particle sizer (Zetasizer® Nano S, Malvern Instruments, UK) equipped with 4 mW He—Ne laser (633 nm) and avalanche photodiode positioned at […] to the beam and temperature controlled cuvette holder. Experiments were performed at 25° C. in triplicate. The distribution of radius was intensity.

[2] = Cryo-TEM of dendrimersomes from glycerol-JDs, number of vesicle layers; format: physicochemical; settings: for Number of vesicle layers: 1 (count of vesicles): vesicles with 1 layer; for Number of vesicle layers: 2 (count of vesicles): vesicles with 2 layers; for Number of vesicle layers: 3 (count of vesicles): vesicles with 3 layers; for Number of vesicle layers: 4 (count of vesicles): vesicles with 4 layers; for Number of vesicle layers: 5 (count of vesicles): vesicles with 5 layers; for Number of vesicle layers: 6 (count of vesicles): vesicles with 6 layers; for lamellarity of DSs (in words) / calculated percentages of unilamellar DSs in the selected images: cryo-TEM; for calculated percentages of unilamellar DSs in the selected images: JD 1 mg mL-1 in water; for Number of vesicle layers: 7 (count of vesicles): vesicles with 7 layers; for Number of vesicle layers: 8 (count of vesicles): vesicles with 8 layers; for Number of vesicle layers: 9 (count of vesicles): vesicles with 9 layers; for Number of vesicle layers: 10 (count of vesicles): vesicles with 10 layers; for Number of vesicle layers: 11 (count of vesicles): vesicles with 11 layers; for Number of vesicle layers: 12 (count of vesicles): vesicles with 12 layers
Text: The red numbers in FIG. 85 stand for the unilamellar while yellow numbers for multilamellar DSs. The calculated percentages of unilamellar DSs in the selected images for 2R, 2S and 2rac are 91%, 70% and 13%, respectively. Same trend was found for cryo-TEM of 1R, 1S and 1rac (FIG. 86 through FIG. 88). […] Achiral DSs are all unilamellar.
Cryogenic Transmission Electron Microscopy (Cryo-TEM). Morphologies of the Janus Dendrimer assemblies were characterized by cryo-TEM. Images were acquired on a Carl Zeiss Libra 120 microscope. Samples were prepared by plunge freezing of aqueous dispersion on plasma-treated lacey grids. The vitrified specimens were then transferred to a Gatan-910 cryoholder. The 5 images were recorded at −170° C. with an acceleration voltage of 120 kV. The concentration of JD in the aqueous solution of DSs was 1 mg mL-^1.

| SMILES | PDI ([1]; JD 0.025 mg·mL−1 in water) | Dh (nm) ([1]; JD 0.025 mg·mL−1 in water) | PDI ([1]; JD 0.05 mg·mL−1 in water) | Dh (nm) ([1]; JD 0.05 mg·mL−1 in water) | PDI ([1]; JD 0.1 mg·mL−1 in water) | Dh (nm) ([1]; JD 0.1 mg·mL−1 in water) | PDI ([1]; JD 0.15 mg·mL−1 in water) | Dh (nm) ([1]; JD 0.15 mg·mL−1 in water) | PDI ([1]; JD 0.2 mg·mL−1 in water) | Dh (nm) ([1]; JD 0.2 mg·mL−1 in water) | PDI ([1]; JD 0.25 mg·mL−1 in water) | Dh (nm) ([1]; JD 0.25 mg·mL−1 in water) | PDI ([1]; JD 0.3 mg·mL−1 in water) | Dh (nm) ([1]; JD 0.3 mg·mL−1 in water) | PDI ([1]; JD 0.4 mg·mL−1 in water) | Dh (nm) ([1]; JD 0.4 mg·mL−1 in water) | PDI ([1]; JD 0.5 mg·mL−1 in water) | Dh (nm) ([1]; JD 0.5 mg·mL−1 in water) | Number of vesicle layers: 1 (count of vesicles) [2] | Number of vesicle layers: 2 (count of vesicles) [2] | also measured |
| --- | --- | --- | --- | --- | --- | --- | --- | --- | --- | --- | --- | --- | --- | --- | --- | --- | --- | --- | --- | --- | --- |
| CCCCCCCCCCCCOc1cc(OCCCCCCCCCCCC)cc(C(=O)OC[C@H](COC(=O)C(C)(COC(=O)c2cc(OCCOCCOCCOC)c(OCCOCCOCCOC)c(OCCOCCOCCOC)c2)COC(=O)c2cc(OCCOCCOCCOC)c(OCCOCCOCCOC)c(OCCOCCOCCOC)c2)OC(=O)c2cc(OCCCCCCCCCCCC)cc(OCCCCCCCCCCCC)c2)c1 [Compound 1R, (3,5)-12G1-GC-(R)-BMPA-(3,4,5)-3EO-G1] | 0.455 | 82 | 0.336 | 87 | 0.197 | 110 | 0.195 | 124 | 0.175 | 135 | 0.202 | 140 | 0.190 | 148 | 0.228 | 178 | 0.326 | 233 | 61 | 15 | Number of vesicle layers: 3 (count of vesicles) [2]: 4; Number of vesicle layers: 4 (count of vesicles) [2]: 1; Number of vesicle layers: 5 (count of vesicles) [2]: 1; Number of vesicle layers: 6 (count of vesicles) [2]: 0 |
| CCCCCCCCCCCCOc1cc(OCCCCCCCCCCCC)cc(C(=O)OC[C@@H](COC(=O)C(C)(COC(=O)c2cc(OCCOCCOCCOC)c(OCCOCCOCCOC)c(OCCOCCOCCOC)c2)COC(=O)c2cc(OCCOCCOCCOC)c(OCCOCCOCCOC)c(OCCOCCOCCOC)c2)OC(=O)c2cc(OCCCCCCCCCCCC)cc(OCCCCCCCCCCCC)c2)c1 [Compound 1S, (3,5)-12G1-GC-(S)-BMPA-(3,4,5)-3EO-G1] | 0.446 | 80 | 0.359 | 86 | 0.223 | 100 | 0.190 | 124 | 0.195 | 135 | 0.203 | 142 | 0.186 | 147 | 0.258 | 184 | 0.438 | 229 | 23 | 9 | Number of vesicle layers: 3 (count of vesicles) [2]: 3; Number of vesicle layers: 4 (count of vesicles) [2]: 4; Number of vesicle layers: 5 (count of vesicles) [2]: 1; Number of vesicle layers: 6 (count of vesicles) [2]: 0 |
| CCCCCCCCCCCCOc1cc(OCCCCCCCCCCCC)cc(C(=O)OCC(C)(COC(=O)c2cc(OCCCCCCCCCCCC)cc(OCCCCCCCCCCCC)c2)C(=O)OC[C@@H](COC(=O)c2cc(OCCOCCOCCOC)c(OCCOCCOCCOC)c(OCCOCCOCCOC)c2)OC(=O)c2cc(OCCOCCOCCOC)c(OCCOCCOCCOC)c(OCCOCCOCCOC)c2)c1 [Compound 2R, (3,5)-12G1-BMPA-GC-(R)-(3,4,5)-3EO-G1] | 0.416 | 107 | 0.368 | 108 | 0.258 | 111 | 0.257 | 125 | 0.242 | 134 | 0.186 | 139 | 0.227 | 152 | 0.263 | 180 | 0.497 | 319 | 202 | 2 | lamellarity of DSs (in words) [2]: unilamellar DSs predominantly; calculated percentages of unilamellar DSs in the selected images [2]: 91%; Number of vesicle layers: 3 (count of vesicles) [2]: 5; Number of vesicle layers: 4 (count of vesicles) [2]: 1; Number of vesicle layers: 5 (count of vesicles) [2]: 3; Number of vesicle layers: 6 (count of vesicles) [2]: 2; Number of vesicle layers: 7 (count of vesicles) [2]: 0; Number of vesicle layers: 8 (count of vesicles) [2]: 0; Number of vesicle layers: 9 (count of vesicles) [2]: 0; Number of vesicle layers: 10 (count of vesicles) [2]: 0; Number of vesicle layers: 11 (count of vesicles) [2]: 1; Number of vesicle layers: 12 (count of vesicles) [2]: 0 |
| CCCCCCCCCCCCOc1cc(OCCCCCCCCCCCC)cc(C(=O)OCC(C)(COC(=O)c2cc(OCCCCCCCCCCCC)cc(OCCCCCCCCCCCC)c2)C(=O)OC[C@H](COC(=O)c2cc(OCCOCCOCCOC)c(OCCOCCOCCOC)c(OCCOCCOCCOC)c2)OC(=O)c2cc(OCCOCCOCCOC)c(OCCOCCOCCOC)c(OCCOCCOCCOC)c2)c1 [Compound 2S, (3,5)-12G1-BMPA-GC-(S)-(3,4,5)-3EO-G1] | 0.465 | 106 | 0.422 | 107 | 0.291 | 112 | 0.212 | 119 | 0.203 | 128 | 0.223 | 132 | 0.235 | 153 | 0.205 | 165 | 0.295 | 288 | 63 | 13 | lamellarity of DSs (in words) [2]: unilamellar DSs predominantly; calculated percentages of unilamellar DSs in the selected images [2]: 70%; Number of vesicle layers: 3 (count of vesicles) [2]: 9; Number of vesicle layers: 4 (count of vesicles) [2]: 1; Number of vesicle layers: 5 (count of vesicles) [2]: 0; Number of vesicle layers: 6 (count of vesicles) [2]: 0; Number of vesicle layers: 7 (count of vesicles) [2]: 1; Number of vesicle layers: 8 (count of vesicles) [2]: 1; Number of vesicle layers: 9 (count of vesicles) [2]: 0; Number of vesicle layers: 10 (count of vesicles) [2]: 3; Number of vesicle layers: 11 (count of vesicles) [2]: 1; Number of vesicle layers: 12 (count of vesicles) [2]: 0 |

Reference: patent US20240252677A1, “ONE-COMPONENT DELIVERY SYSTEM FOR NUCLEIC ACIDS” (The Trustees of the University of Pennsylvania, priority 2021, published 2024)
